According to PMC6718736, “Validation of in vitro methods for human cytochrome P450 enzyme induction: Outcome of a multi-laboratory study” (Toxicology in Vitro, 2019):
Where two headings read alike, the source gives them in different places.

Columns and labels:
[1] = system: CYP2B6; assay: CYP2B6 enzyme induction assay in cryopreserved HepaRG cells (bupropion probe, LC/MS); assay type: in vitro ADME, human; conditions: for Prediction in vivo inducer: Cmax/F2 >0.5 criterion; for Assigned classification CYP2B6: HepaRG; on Assigned classification CYP2B6: key: 1=Positive=inducer; 0=Negative=non-inducer
[2] = cited from earlier work
[3] = system: CYP3A4; assay: CYP3A4 enzyme induction assay in cryopreserved primary human hepatocytes (PHH); conditions: for Assigned classification CYP3A4: PHH
[4] = Solubility by nephelometry (EURL ECVAM); assay type: physicochemical
Excerpt: In addition to the visual inspection performed by the validation laboratories as described in the SOP, EURL ECVAM introduced nephelometry for systematic solubility determination of the 13 validation set chemicals. Nephelometry uses a laser beam and the principle of Tyndall effect light scatter to detect turbidity due to insolubility. The nephelometer method used formazin as reference item (1, 5, 10 and 20 nephelometric turbidity units (NTU)) to calculate the relative turbidity (RTU) of the validation set of chemicals. To the naked eye, 20 NTU is perceptible, while the nephelometer was sensitive to 5 NTU, with 1 NTU equivalent to background (solvent/medium blank).

[5] = system: CYP1A2; assay: CYP1A2 enzyme induction assay in cryopreserved HepaRG cells (phenacetin probe, LC/MS); assay type: in vitro ADME, human; conditions: for Assigned classification CYP1A2: HepaRG; on Assigned classification CYP1A2: key: 1=Positive=inducer; 0=Negative=non-inducer
[6] = system: CYP3A4; assay: CYP3A4 enzyme induction assay in cryopreserved HepaRG cells (midazolam probe, LC/MS); assay type: in vitro ADME, human; conditions: for Assigned classification CYP3A4: HepaRG; on Assigned classification CYP3A4: key: 1=Positive=inducer; 0=Negative=non-inducer
[7] = system: CYP1A2; conditions: cited from earlier work
[8] = system: CYP2B6; assay: CYP2B6 enzyme induction assay in cryopreserved primary human hepatocytes (PHH); assay type: in vitro ADME; conditions: for Assigned classification CYP2B6: PHH;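 on Assigned classification CYP2B6: code 1 means positive inducer and 0 means non-inducer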
[9] = system: CYP2B6; conditions: cited from earlier work
[10] = Solubility by visual inspection (DMSO stock solution and assay medium); assay type: physicochemical; conditions: assay medium
Procedure: The SOPs relied on visual inspection for solubility observation. […] The absence of precipitation in the medium was checked pre- and post-incubation (24 hours) by centrifugation of the sample and observation of any precipitation (pellet residue).

[11] = system: CYP; conditions: CYP isoforms induced; ref Abadie et al. (2009), Richert et al. (2010), Preissner et al. (2010), Hoffmann et al. (2014); cited from earlier work
[12] = system: CYP1A2; assay: CYP1A2 enzyme induction assay in cryopreserved primary human hepatocytes (PHH); assay type: in vitro ADME; conditions: for Prediction in vivo inducer: Cmax/F2 >0.5 criterion; for Assigned classification CYP1A2: PHH;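 on Assigned classification CYP1A2: code 1 means positive inducer and 0 means non-inducer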
[13] = system: CYP3A4; conditions: cited from earlier work
[14] = human in vivo, CYP named without remark = induced, ref references in the cell, Washington University database, Hoffmann et al. (2014), Pelkonen et al. (2008), Hukkanen et al. (2012)

Compound: O=C1NC(=O)C(c2ccccc2)(c2ccccc2)N1 [Phenytoin sodium]
- Prediction in vivo inducer ([1]; CYP2B6, HepaRG cells, listed as Phenytoin): Yes
- Prediction in vivo inducer ([1]; CYP2B6, HepaRG cells, listed as phenytoin): correctly classified
- F2 ([1]; CYP2B6, HepaRG cells, in vitro concentration producing 2-fold induction): 1.35 µM
- Induction in vitro ([1]; CYP2B6, HepaRG cells, positive in one batch in each of the three laboratories): Yes
- Assigned classification CYP2B6 ([1]; Lab 1, batch 20): 1
- Assigned classification CYP2B6 ([1]; Lab 1, batch 35): 1
- Assigned classification CYP2B6 ([1]; Lab 1, batch 36): 1
- Assigned classification CYP2B6 ([1]; Lab 2, batch 20): 1
- Assigned classification CYP2B6 ([1]; Lab 2, batch 35): 1
- Assigned classification CYP2B6 ([1]; Lab 2, batch 36): 1
- Assigned classification CYP2B6 ([1]; Lab 3, batch 20): 1
- Assigned classification CYP2B6 ([1]; Lab 3, batch 35): 1
- Assigned classification CYP2B6 ([1]; Lab 3, batch 36): 1
- Cmax ([2]; human in vivo plasma concentration, normal dose): 40 to 80 µM
- Cmax ([2]; human in vivo, normal dose (Table 10)): 40 to 80 µM
- F2 ([3]; CYP3A4, PHH): 1.80 to 16.2 µM
- Induction in vitro ([3]; CYP3A4, PHH): Yes
- Prediction in vivo inducer ([3]; CYP3A4, PHH): Yes
- Assigned classification CYP3A4 ([3]; Lab 1, batch 0 6 A): 1
- Assigned classification CYP3A4 ([3]; Lab 1, batch 4 0 8): 0
- Assigned classification CYP3A4 ([3]; Lab 1, batch 8 0 8): 1
- Assigned classification CYP3A4 ([3]; Lab 2, batch 0 6 A): 1
- Assigned classification CYP3A4 ([3]; Lab 2, batch 4 0 8): 1
- Assigned classification CYP3A4 ([3]; Lab 2, batch 8 0 8): 1
- Assigned classification CYP3A4 ([3]; Lab 3, batch 0 6 A): 1
- Assigned classification CYP3A4 ([3]; Lab 3, batch 4 0 8): 1
- Assigned classification CYP3A4 ([3]; Lab 3, batch 8 0 8): 1
- nephelometry finding in assay medium ([4]; 40 μg/ml, the two media): insoluble suspensions
- HepaRG medium stability ([4]; ECVAM nephelometry, HepaRG medium, ^2 = solubility limit): 40 µg/mL
- PHH medium stability ([4]; ECVAM nephelometry, PHH medium, ^2 = solubility limit): 20 µg/mL
- Prediction in vivo inducer ([5]; CYP1A2, HepaRG cells, Cmax/F2 >0.5 criterion): Yes
- F2 ([5]; CYP1A2, HepaRG cells, in vitro concentration producing 2-fold induction): 36.5 µM
- Induction in vitro ([5]; CYP1A2, HepaRG cells, positive in one batch in each of the three laboratories): Yes
- Assigned classification CYP1A2 ([5]; Lab 1, batch 20): 1
- Assigned classification CYP1A2 ([5]; Lab 1, batch 35): 1
- Assigned classification CYP1A2 ([5]; Lab 1, batch 36): 1
- Assigned classification CYP1A2 ([5]; Lab 2, batch 20): 1
- Assigned classification CYP1A2 ([5]; Lab 2, batch 35): 1
- Assigned classification CYP1A2 ([5]; Lab 2, batch 36): 1
- Assigned classification CYP1A2 ([5]; Lab 3, batch 20): 1
- Assigned classification CYP1A2 ([5]; Lab 3, batch 35): 0
- Assigned classification CYP1A2 ([5]; Lab 3, batch 36): 1
- F2 ([6]; CYP3A4, HepaRG cells): 12.2 µM
- Induction in vitro ([6]; CYP3A4, HepaRG cells): Yes
- Prediction in vivo inducer ([6]; CYP3A4, HepaRG cells): Yes
- Assigned classification CYP3A4 ([6]; Lab 1, batch 20): 1
- Assigned classification CYP3A4 ([6]; Lab 1, batch 35): 1
- Assigned classification CYP3A4 ([6]; Lab 1, batch 36): 1
- Assigned classification CYP3A4 ([6]; Lab 2, batch 20): 1
- Assigned classification CYP3A4 ([6]; Lab 2, batch 35): 1
- Assigned classification CYP3A4 ([6]; Lab 2, batch 36): 1
- Assigned classification CYP3A4 ([6]; Lab 3, batch 20): 1
- Assigned classification CYP3A4 ([6]; Lab 3, batch 35): 1
- Assigned classification CYP3A4 ([6]; Lab 3, batch 36): 1
- Induction in vivo ([7]; CYP1A2, human, ref Table 1): Yes
- CYP induction in vivo literature reference: CYP1A2 [7, 14]: CYP1A2
- F2 ([8]; CYP2B6, PHH): 0.60 to 48.6 µM
- Induction in vitro ([8]; CYP2B6, PHH): Yes
- Prediction in vivo inducer ([8]; CYP2B6, PHH): Yes
- Prediction in vivo inducer ([8]; CYP2B6, PHH, Cmax/F2 >0.5 criterion): positive
- Assigned classification CYP2B6 ([8]; Lab 1, batch 0 6 A): 1
- Assigned classification CYP2B6 ([8]; Lab 1, batch 4 0 8): 1
- Assigned classification CYP2B6 ([8]; Lab 1, batch 8 0 8): 0
- Assigned classification CYP2B6 ([8]; Lab 2, batch 0 6 A): 1
- Assigned classification CYP2B6 ([8]; Lab 2, batch 4 0 8): 1
- Assigned classification CYP2B6 ([8]; Lab 2, batch 8 0 8): 0
- Assigned classification CYP2B6 ([8]; Lab 3, batch 0 6 A): 1
- Assigned classification CYP2B6 ([8]; Lab 3, batch 4 0 8): 1
- Assigned classification CYP2B6 ([8]; Lab 3, batch 8 0 8): 1
- Induction in vivo ([9]; CYP2B6, human in vivo reference classification): Yes
- Induction in vivo ([9]; CYP2B6, human, ref Table 1): Yes
- CYP induction in vivo literature reference: CYP2B6 [9, 14]: CYP2B6
- HepaRG medium stability ([10]; Lab 1, visual observation): 40 µg/mL
- HepaRG medium stability ([10]; Lab 2, visual observation): 20 µg/mL
- HepaRG medium stability ([10]; Lab 3, visual observation): 40 µg/mL
- PHH medium stability ([10]; Lab 4, visual observation): 40 µg/mL
- PHH medium stability ([10]; Lab 5, visual observation): 20 µg/mL
- PHH medium stability ([10]; Lab 6, visual observation): 10 µg/mL
- CYP induction in vitro (human hepatocytes) [11]: CYP1A2, CYP2B6, CYP3A4
- Prediction in vivo inducer ([12]; CYP1A2, PHH, listed as Phenytoin): Yes
- Prediction in vivo inducer ([12]; CYP1A2, PHH, listed as phenytoin): correctly predicted CYP1A2 induction
- F2 ([12]; CYP1A2, PHH, in vitro concentration producing 2-fold induction): 16.2 to 48.6 µM
- Induction in vitro ([12]; CYP1A2, PHH, positive in one donor in each of the three laboratories): Yes
- Assigned classification CYP1A2 ([12]; Lab 1, batch 0 6 A): 1
- Assigned classification CYP1A2 ([12]; Lab 1, batch 4 0 8): 0
- Assigned classification CYP1A2 ([12]; Lab 1, batch 8 0 8): 0
- Assigned classification CYP1A2 ([12]; Lab 2, batch 0 6 A): 1
- Assigned classification CYP1A2 ([12]; Lab 2, batch 4 0 8): 0
- Assigned classification CYP1A2 ([12]; Lab 2, batch 8 0 8): 0
- Assigned classification CYP1A2 ([12]; Lab 3, batch 0 6 A): 1
- Assigned classification CYP1A2 ([12]; Lab 3, batch 4 0 8): 1
- Assigned classification CYP1A2 ([12]; Lab 3, batch 8 0 8): 0
- Induction in vivo ([13]; CYP3A4, human in vivo reference classification (Table 11)): Yes
- CYP induction in vivo literature reference: CYP3A4 [13, 14]: CYP3A4
